Data as given in patent publication US11339171B2, “MDM2 inhibitors” (Gan & Lee Pharmaceuticals, priority 2017, dated 2022).

Experiments:
MDM2 = target: T1, MDM2 (Homo sapiens, UniProt Q00987); experiment: Inhibition test of MDM2-P53 (GST-MDM2, Biotin-P53, Anti-GST-Tb, SA-XL665); assay type: binding
T1 construct: made in house
Outline: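 Compounds, serially diluted 5-fold (twelve concentrations), were shaken for 90 min at 25° C with a mix of GST-MDM2 (4 nM final), Biotin-P53, anti-GST-Tb and SA-XL665. Buffer: 1×PBS, 0.1% BSA, 5 mM DTT, 1 mM AEBSF; signal read on a microplate reader.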

[1] = system: human osteosarcoma cell line SJSA-1; experiment: Inhibition of proliferation of human osteosarcoma cell line SJSA-1 (DAPI staining, In Cell Analyzer); details: Homo sapiens, SJSA-1, 72 h, read-out: IC50 (nM), inhibitory activity on proliferation of human osteosarcoma cell line SJSA-1, SJSA-1, incubated 72 h

T1 sequence (Q00987 whole entry): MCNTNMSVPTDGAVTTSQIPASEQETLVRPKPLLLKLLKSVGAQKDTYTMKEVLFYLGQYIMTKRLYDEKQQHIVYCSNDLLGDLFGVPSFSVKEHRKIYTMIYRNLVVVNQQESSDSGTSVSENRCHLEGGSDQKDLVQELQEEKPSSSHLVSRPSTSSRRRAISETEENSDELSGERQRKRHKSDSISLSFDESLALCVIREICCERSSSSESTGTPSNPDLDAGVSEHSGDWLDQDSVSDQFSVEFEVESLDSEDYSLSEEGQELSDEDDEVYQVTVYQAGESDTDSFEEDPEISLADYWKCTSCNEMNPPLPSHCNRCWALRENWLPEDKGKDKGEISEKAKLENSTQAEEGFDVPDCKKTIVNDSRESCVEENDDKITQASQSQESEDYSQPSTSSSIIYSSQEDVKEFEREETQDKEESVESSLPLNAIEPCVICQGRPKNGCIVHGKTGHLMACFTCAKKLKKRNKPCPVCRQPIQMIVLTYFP

SMILES	IC50 (MDM2) [µM]	IC50 [1] [nM]
COc1ncc(-c2cc3c(n2C(C)C)[C@]2(C(=O)Nc4cc(Cl)ccc42)N(c2cc(Cl)ccc2C)C3=O)c(OC)n1 [Example R-50, (R)-6-chloro-5′-(5-chloro-2-methylphenyl)-2′-(2,4-dimethoxypyrimidin-5-yl)-1′-isopropyl-1′H-spiro[dihydroindole-3,6′-pyrrolo[3,4-b]pyrrole]-2,4′(5′H)-dione]	20.4	8430
COc1ncc(-c2nc3c(n2C(C)C)[C@]2(C(=O)Nc4cc(Cl)ccc42)N(c2cc(C)cc(Cl)c2)C3=O)c(OC)n1 [Example R-51, (R)-6-chloro-5′-(3-chloro-5-methylphenyl)-2′-(2,4-dimethoxypyrimidin-5-yl)-3′-isopropyl-3′H-spiro[dihydroindole-3,4′-pyrrolo[3,4-d]imidazole]-2,6′(5′H)-dione]	0.547	9520
COc1ccc(-c2nc3c(n2C(C)C)[C@]2(C(=O)Nc4cc(Cl)ccc42)N(c2cc(Cl)c(=O)n(C)c2)C3=O)c(OC)c1 [Example R-52, (R)-6-chloro-5′-(5-chloro-1-methyl-6-oxo-1,6-dihydropyridin-3-yl)-2′-(2,4-dimethoxyphenyl)-3′-isopropyl-3′H-spiro[dihydroindole-3,4′-pyrrolo[3,4-d]imidazole]-2,6′(5′H)-dione]	0.54	22400
COc1ccccc1-c1nc2c(n1C(C)C)[C@]1(C(=O)Nc3cc(Cl)ccc31)N(c1cc(Cl)c(=O)n(C)c1)C2=O [Example R-53, (R)-6-chloro-5′-(5-chloro-1-methyl-6-oxo-1,6-dihydropyridin-3-yl)-3′-isopropyl-2′-(2-methoxyphenyl)-3′H-spiro[dihydroindole-3,4′-pyrrolo[3,4-d]imidazole]-2,6′(5′H)-dione]	3.77	77400
COc1ncc(-c2nc3c(n2C(C)C)[C@]2(C(=O)Nc4cc(Cl)ccc42)N(c2cccc(C)c2)C3=O)c(OC)n1 [Example R-55, (R)-6-chloro-2′-(2,4-dimethoxypyrimidin-5-yl)-3′-isopropyl-5′-(m-tolyl)-3′H-spiro[dihydroindole-3,4′-pyrrolo[3,4-d]imidazole]-2,6′(5′H)-dione]	0.437	9940
COc1ncc(-c2nc3c(n2C(C)C)[C@]2(C(=O)Nc4cc(Cl)ccc42)N(c2cc(C)ccc2C)C3=O)c(OC)n1 [Example R-56, (R)-6-chloro-2′-(2,4-dimethoxypyrimidin-5-yl)-5′-(2,5-dimethylphenyl)-3′-isopropyl-3′H-spiro[dihydroindole-3,4′-pyrrolo[3,4-d]imidazole]-2,6′(5′H)-dione]	0.155	3480
COc1cccc(F)c1-c1nc2c(n1C(C)C)[C@]1(C(=O)Nc3cc(Cl)ccc31)N(c1cc(Cl)ccc1C)C2=O [Example R-57, (R)-6-chloro-5′-(5-chloro-2-methylphenyl)-2′-(2-fluoro-6-methoxyphenyl)-3′-isopropyl-3′H-spiro[dihydroindole-3,4′-pyrrolo[3,4-d]imidazole]-2,6′(5′H)-dione]	0.427	3960
COc1cc(Cl)cc(N2C(=O)c3nc(-c4cnc(OC)nc4OC)n(C(C)C)c3[C@]23C(=O)Nc2cc(Cl)ccc23)c1 [Example R-58, (R)-6-chloro-5′-(3-chloro-5-methoxyphenyl)-2′-(2,4-dimethoxypyrimidin-5-yl)-3′-isopropyl-3′H-spiro[dihydroindole-3,4′-pyrrolo[3,4-d]imidazole]-2,6′(5′H)-dione]	1.43	5890
COc1ccc(-c2nc3c(n2C(C)C)[C@]2(C(=O)Nc4cc(Cl)ccc42)N(c2cc(Cl)cnc2C)C3=O)c(OC)c1 [Example R-61, (R)-6-chloro-5′-(5-chloro-2-methylpyridin-3-yl)-2′-(2,4-dimethoxyphenyl)-3′-isopropyl-3′H-spiro[dihydroindole-3,4′-pyrrolo[3,4-d]imidazole]-2,6′(5′H)-dione]	0.136	136
COc1ccc(C)cc1-c1nc2c(n1C(C)C)[C@]1(C(=O)Nc3cc(Cl)ccc31)N(c1cc(Cl)ccc1C)C2=O [Example R-62, (R)-6-chloro-5′-(5-chloro-2-methylphenyl)-3′-isopropyl-2′-(2-methoxy-5-methylphenyl)-3′H-spiro[dihydroindole-3,4′-pyrrolo[3,4-d]imidazole]-2,6′(5′H)-dione]	0.252	4360
COc1cc(N)ccc1-c1nc2c(n1C(C)C)[C@]1(C(=O)Nc3cc(Cl)ccc31)N(c1cc(Cl)ccc1F)C2=O [Example R-66, (R)-2′-(4-amino-2-methoxyphenyl)-6-chloro-5′-(5-chloro-2-fluorophenyl)-3′-isopropyl-3′H-spiro[dihydroindole-3,4′-pyrrolo[3,4-d]imidazole]-2,6′(5′H)-dione]	0.0859	3860
COc1cc(N)ccc1-c1nc2c(n1C(C)C)[C@]1(C(=O)Nc3cc(Cl)ccc31)N(c1cc(F)cc(Cl)c1)C2=O [Example R-67, (R)-2′-(4-amino-2-methoxyphenyl)-6-chloro-5′-(3-chloro-5-fluorophenyl)-3′-isopropyl-3′H-spiro[dihydroindole-3,4′-pyrrolo[3,4-d]imidazole]-2,6′(5′H)-dione]	0.355	8490
COc1cc(OC(C)C)ncc1-c1nc2c(n1C(C)C)[C@]1(C(=O)Nc3cc(Cl)ccc31)N(c1cc(Cl)ccc1C)C2=O [Example R-69, (R)-6-chloro-5′-(5-chloro-2-methylphenyl)-2′-(6-isopropoxy-4-methoxypyridin-3-yl)-3′-isopropyl-3′H-spiro[dihydroindole-3,4′-pyrrolo[3,4-d]imidazole]-2,6′(5′H)-dione]	0.636	6580
COc1ccc(CC(=O)N(C)C)cc1-c1nc2c(n1C(C)C)[C@]1(C(=O)Nc3cc(Cl)ccc31)N(c1cc(Cl)ccc1C)C2=O [Example R-70, (R)-2-(3-(6-chloro-5′-(5-chloro-2-methylphenyl)-3′-isopropyl-2,6′-dioxo-5′,6′-dihydro-3′H-spiro[dihydroindole-3,4′-pyrrolo[3,4-d]imidazole]-2′-yl)-4-methoxyphenyl)-N,N-dimethylacetamide]	0.111	4210
COc1ccc(N2C(=O)c3nc(-c4ccc(N)cc4OC)n(C(C)C)c3[C@]23C(=O)Nc2cc(Cl)ccc23)cc1Cl [Example R-71, (R)-2′-(4-amino-2-methoxyphenyl)-6-chloro-5′-(3-chloro-4-methoxyphenyl)-3′-isopropyl-3′H-spiro[dihydroindole-3,4′-pyrrolo[3,4-d]imidazole]-2,6′(5′H)-dione]	0.1	7020
CCOc1cc(OC)c(-c2nc3c(n2C(C)C)[C@]2(C(=O)Nc4cc(Cl)ccc42)N(c2cc(Cl)ccc2C)C3=O)cn1 [Example R-72, (R)-6-chloro-5′-(5-chloro-2-methylphenyl)-2′-(6-ethoxy-4-methoxypyridin-3-yl)-3′-isopropyl-3′H-spiro[dihydroindole-3,4′-pyrrolo[3,4-d]imidazole]-2,6′(5′H)-dione]	0.214	3480
COc1cc(N)c(C)cc1-c1nc2c(n1C(C)C)[C@]1(C(=O)Nc3cc(Cl)ccc31)N(c1cc(Cl)ccc1C)C2=O [Example R-74, (R)-2′-(4-amino-2-methoxy-5-methylphenyl)-6-chloro-5′-(5-chloro-2-methylphenyl)-3′-isopropyl-3′H-spiro[dihydroindole-3,4′-pyrrolo[3,4-d]imidazole]-2,6′(5′H)-dione]	0.0934	1840
COc1cc(N)c(F)cc1-c1nc2c(n1C(C)C)[C@]1(C(=O)Nc3cc(Cl)ccc31)N(c1cc(Cl)ccc1C)C2=O [Example R-75, (R)-2′-(4-amino-5-fluoro-2-methoxyphenyl)-6-chloro-5′-(5-chloro-2-methylphenyl)-3′-isopropyl-3′H-spiro[dihydroindole-3,4′-pyrrolo[3,4-d]imidazole]-2,6′(5′H)-dione]	0.122	3040
COc1cc(N(C)C)c(F)cc1-c1nc2c(n1C(C)C)[C@]1(C(=O)Nc3cc(Cl)ccc31)N(c1cc(Cl)ccc1C)C2=O [Example R-78]	0.222	1360
COc1cc(N(C)C)ccc1-c1nc2c(n1C(C)C)[C@]1(C(=O)Nc3cc(Cl)ccc31)N(c1cc(Cl)ccc1F)C2=O [Example R-81, (R)-6-chloro-5′-(5-chloro-2-fluorophenyl)-2′-(4-(dimethylamino)-2-methoxyphenyl)-3′-isopropyl-3′H-spiro[dihydroindole-3,4′-pyrrolo[3,4-d]imidazole]-2,6′(5′H)-dione]	0.0533	1600
COc1cc(OC)c(-c2nc3c(n2C(C)C)[C@]2(C(=O)Nc4cc(Cl)ccc42)N(c2cc(Cl)ccc2C)C3=O)cc1C [Example R-83, (R)-6-chloro-5′-(5-chloro-2-methylphenyl)-2′-(2,4-dimethoxy-5-methylphenyl)-3′-isopropyl-3′H-spiro[dihydroindole-3,4′-pyrrolo[3,4-d]imidazole]-2,6′(5′H)-dione]	0.0876	589
COc1cc(C(F)(F)F)ccc1-c1nc2c(n1C(C)C)[C@]1(C(=O)Nc3cc(Cl)ccc31)N(c1cc(Cl)ccc1C)C2=O [Example R-85, (R)-6-chloro-5′-(5-chloro-2-methylphenyl)-3′-isopropyl-2′-(2-methoxy-4-(trifluoromethyl)phenyl)-3′H-spiro[dihydroindole-3,4′-pyrrolo[3,4-d]imidazole]-2,6′(5′H)-dione]	0.494	2190
COc1cc(OC(F)(F)F)ccc1-c1nc2c(n1C(C)C)[C@]1(C(=O)Nc3cc(Cl)ccc31)N(c1cc(Cl)ccc1C)C2=O [Example R-87, (R)-6-chloro-5′-(5-chloro-2-methylphenyl)-3′-isopropyl-2′-(2-methoxy-4-(trifluoromethoxy)phenyl)-3′H-spiro[dihydroindole-3,4′-pyrrolo[3,4-d]imidazole]-2,6′(5′H)-dione]	0.473	7350
